We go through 23 compounds from PubChem BioAssay AID330 (DTP/NCI, 2004).

The test system of the assay is P388 leukemia ip, CD2F1 mice, survival T/C. Briefly: NCI In Vivo Anticancer Drug Screen. Data for tumor model P388 Leukemia (intraperitoneal) in CD2F1 (CDF1) mice. The note with it: endpoint: median survival time, higher = longer survival. In outline: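 Mice carrying the transplanted tumor received test compound or vehicle. Survival was recorded in each group, and the value is the treated-group measurement divided by that of the vehicle-treated control group.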

Where [1] appears, read: dose: 50.0 mg/kg/injection, schedule: Q01DX009 (ip), vehicle: Klucel (hydroxypropylcellulose) (HPC).
Where [2] appears, read: dose: 50.0 mg/kg/injection, schedule: Q01DX005 (ip), vehicle: saline.
Setting [3] is: dose: 100.0 mg/kg/injection, schedule: Q01DX005 (ip), vehicle: Klucel (hydroxypropylcellulose) (HPC).
Setting [4] is: dose: 100.0 mg/kg/injection, schedule: Q04DX003 (ip), vehicle: saline.
Where [5] appears, read: dose: 200.0 mg/kg/injection, schedule: Q04DX003 (ip), vehicle: saline.
The mark [6] stands for this setting: dose: 120.0 mg/kg/injection, schedule: Q01DX005 (ip), vehicle: Klucel (hydroxypropylcellulose) (HPC).
Where [7] appears, read: dose: 12.5 mg/kg/injection, schedule: Q01DX005 (ip), vehicle: saline.
The mark [8] stands for this setting: dose: 50.0 mg/kg/injection, schedule: Q01DX005 (ip), vehicle: saline with Tween-80.
The mark [9] stands for this setting: dose: 100.0 mg/kg/injection, schedule: Q01DX005 (ip), vehicle: saline with Tween-80.
Setting [10] is: dose: 200.0 mg/kg/injection, schedule: Q01DX005 (ip), vehicle: saline with Tween-80.
[11] abbreviates: dose: 50.0 mg/kg/injection, schedule: Q01DX005 (ip), vehicle: Klucel (hydroxypropylcellulose) (HPC).
Setting [12] is: dose: 200.0 mg/kg/injection, schedule: Q01DX005 (ip), vehicle: Klucel (hydroxypropylcellulose) (HPC).
The mark [13] stands for this setting: dose: 60.0 mg/kg/injection, schedule: Q01DX005 (ip), vehicle: saline with Tween-80.
Setting [14] is: dose: 6.25 mg/kg/injection, schedule: Q01DX005 (ip), vehicle: Klucel (hydroxypropylcellulose) (HPC).
The mark [15] stands for this setting: dose: 12.5 mg/kg/injection, schedule: Q01DX005 (ip), vehicle: Klucel (hydroxypropylcellulose) (HPC).
[16] abbreviates: dose: 25.0 mg/kg/injection, schedule: Q01DX005 (ip), vehicle: Klucel (hydroxypropylcellulose) (HPC).

The structures appear in SMILES notation. Where “and” joins values, the source holds several entries; their conditions need not be identical. Equal entries are not always repeated. Inconclusive results and toxic doses are left out.

On to `CC1(CCc2ccc(N(CCCl)CCCl)cc2)NC(=O)NC1=O` (configuration not stated), for which the T/C (dose: 3.13 mg/kg/injection, schedule: Q01DX009 (ip), vehicle: Klucel (hydroxypropylcellulose) (HPC)) is 105 % of control; the T/C (dose: 6.25 mg/kg/injection, schedule: Q01DX009 (ip), vehicle: Klucel (hydroxypropylcellulose) (HPC)) is 103 % of control; the T/C (dose: 12.5 mg/kg/injection, schedule: Q01DX009 (ip), vehicle: Klucel (hydroxypropylcellulose) (HPC)) is 103 % of control; the T/C under setting [1] was 103 % of control.

Take `CC(C)Sc1ncn[nH]1`: the T/C by setting is: under setting [2], 99 % of control; (dose: 100.0 mg/kg/injection, schedule: Q01DX005 (ip), vehicle: saline) 100 % of control; (dose: 200.0 mg/kg/injection, schedule: Q01DX005 (ip), vehicle: saline) 102 % of control.

Consider `CCc1nc(N)nc(N)c1-c1ccc(NC)c([N+](=O)[O-])c1`, for which, under setting [3], the T/C is 182 % of control.

As to `O=c1[nH]cnc2cc3c(cc12)nc1n3CCOC1`, the T/C is 109 % of control under setting [4] and 105 % of control under setting [5].

`C[Si](C)(C)Cn1cc(F)c(=O)n(C[Si](C)(C)C)c1=O`: the T/C (dose: 60.0 mg/kg/injection, schedule: Q01DX005 (ip), vehicle: Klucel (hydroxypropylcellulose) (HPC)) was 103 % of control; the T/C under setting [6] is 103 % of control; the T/C (dose: 240.0 mg/kg/injection, schedule: Q01DX005 (ip), vehicle: Klucel (hydroxypropylcellulose) (HPC)) is 97 % of control.

Turning to `OC1(c2ccc(C3(O)C(c4ccccc4)=C(c4ccccc4)C(c4ccccc4)=C3c3ccccc3)cc2)C(c2ccccc2)=C(c2ccccc2)C(c2ccccc2)=C1c1ccccc1`, the T/C is, setting by setting: under setting [1], 105 % of control; (dose: 100.0 mg/kg/injection, schedule: Q01DX009 (ip), vehicle: Klucel (hydroxypropylcellulose) (HPC)) 86 % of control; (dose: 200.0 mg/kg/injection, schedule: Q01DX009 (ip), vehicle: Klucel (hydroxypropylcellulose) (HPC)) 90 % of control.

For `O=C(O)CC1CC=CCC1CC(=O)O` (configuration not stated), the T/C runs as follows: (dose: 100.0 mg/kg/injection, schedule: Q01DX001 (ip), vehicle: saline sonified) 100 % of control; (dose: 200.0 mg/kg/injection, schedule: Q01DX001 (ip), vehicle: saline sonified) 100 % of control; (dose: 400.0 mg/kg/injection, schedule: Q01DX001 (ip), vehicle: saline sonified) 105 % of control.

As for `CN(C)CCCNC(=O)c1ccc2c(c1O)C(=O)c1ccccc1C2=O`, the T/C under setting [7] is 105 % of control; the T/C (dose: 25.0 mg/kg/injection, schedule: Q01DX005 (ip), vehicle: saline) was 109 % of control; the T/C under setting [2] was 114 % of control.

Take `O=c1cccc2n1C[C@H]1C[C@@H]2CN2CCCC[C@H]12`: the T/C reads like this: (dose: 6.25 mg/kg/injection, schedule: Q01DX005 (ip), vehicle: saline) 99 % of control; under setting [7], 99 % of control.

Consider `CCCCCCCC/C=C\CCCCCCCC(=O)OCCCCCCCCCCCC`, for which the T/C by setting is: (dose: 6.25 mg/kg/injection, schedule: Q01DX012 (ip), vehicle: saline with Tween-80) 100 % of control; (dose: 12.5 mg/kg/injection, schedule: Q01DX012 (ip), vehicle: saline with Tween-80) 104 % of control; (dose: 50.0 mg/kg/injection, schedule: Q01DX012 (ip), vehicle: saline with Tween-80) 100 % of control; (dose: 100.0 mg/kg/injection, schedule: Q01DX012 (ip), vehicle: saline with Tween-80) 98 % of control; (dose: 200.0 mg/kg/injection, schedule: Q01DX012 (ip), vehicle: saline with Tween-80) 101 % of control; (dose: 500.0 mg/kg/injection, schedule: Q01DX012 (ip), vehicle: saline with Tween-80) 106 % of control. Under “dose: 872.0 mg/kg/injection, schedule: Q01DX012 (ip), vehicle: saline with Tween-80”, the T/C was 97 % of control.

Take `NS(=O)(=O)c1ccc(N=c2c3ccccc3n(-c3ccccc3)c3ccccc23)cc1`: the T/C was 102 % of control under setting [8], 93 % of control under setting [9] and 90 % of control under setting [10].

Take `CC(=O)c1c(N)n(C)c(=O)n(C)c1=O`: the T/C reads like this: (dose: 1.56 mg/kg/injection, schedule: Q01DX009 (ip), vehicle: saline with Tween-80) 101 % of control; (dose: 3.13 mg/kg/injection, schedule: Q01DX009 (ip), vehicle: saline with Tween-80) 100 % of control; (dose: 6.25 mg/kg/injection, schedule: Q01DX009 (ip), vehicle: saline with Tween-80) 100 % of control and 95 % of control.

For the compound `COc1ccc(C2/C(=N/O)CCCC2C)cc1` (configuration not stated), the T/C under setting [8] is 94 % of control, the T/C under setting [9] is 97 % of control and the T/C under setting [10] is 87 % of control.

As for `CC1CN2CC(C)O[Si](CCCCCC[Si]34OC(C)CN(CC(C)O3)CC(C)O4)(O1)OC(C)C2` (configuration not stated), the T/C is, setting by setting: under setting [11], 108 % of control; under setting [3], 97 % of control; under setting [12], 97 % of control.

As for `CC(C)Cc1cc(-c2cc(CC(C)C)[nH]n2)n[nH]1`, the T/C runs as follows: under setting [13], 106 % of control; (dose: 120.0 mg/kg/injection, schedule: Q01DX005 (ip), vehicle: saline with Tween-80) 95 % of control; (dose: 240.0 mg/kg/injection, schedule: Q01DX005 (ip), vehicle: saline with Tween-80) 100 % of control.

Take `Cn1c(C(=O)NN)cc2cc(OCc3ccccc3)ccc21`: the T/C runs as follows: under setting [11], 97 % of control; under setting [3], 100 % of control; under setting [12], 98 % of control.

`COc1ccc([N+](=O)[O-])c(C#N)c1`: the T/C is 98 % of control under setting [4]; 93 % of control under setting [5]; 100 % of control (dose: 400.0 mg/kg/injection, schedule: Q04DX003 (ip), vehicle: saline).

`CC(=O)c1c(C)n(-c2ccccc2)c2c1nnc1ccccc12`: the T/C (dose: 3.75 mg/kg/injection, schedule: Q01DX005 (ip), vehicle: Klucel (hydroxypropylcellulose) (HPC)) is 101 % of control; the T/C (dose: 7.5 mg/kg/injection, schedule: Q01DX005 (ip), vehicle: Klucel (hydroxypropylcellulose) (HPC)) is 93 % of control; the T/C (dose: 15.0 mg/kg/injection, schedule: Q01DX005 (ip), vehicle: Klucel (hydroxypropylcellulose) (HPC)) is 95 % of control; the T/C under setting [6] was 96 % of control.

Take `Clc1cccc2sc(Nc3c4ccccc4nc4ccccc34)nc12`: the T/C is, setting by setting: (dose: 12.5 mg/kg/injection, schedule: Q04DX002 (ip), vehicle: distilled water + Tween-80) 95 % of control; (dose: 25.0 mg/kg/injection, schedule: Q04DX002 (ip), vehicle: distilled water + Tween-80) 89 % of control; (dose: 50.0 mg/kg/injection, schedule: Q04DX002 (ip), vehicle: distilled water + Tween-80) 95 % of control; (dose: 100.0 mg/kg/injection, schedule: Q04DX002 (ip), vehicle: distilled water + Tween-80) 97 % of control; (dose: 200.0 mg/kg/injection, schedule: Q04DX002 (ip), vehicle: distilled water + Tween-80) 97 % of control; (dose: 400.0 mg/kg/injection, schedule: Q04DX002 (ip), vehicle: distilled water + Tween-80) 97 % of control.

In the case of `COC1=CC(=O)c2ncc(Cl)cc2C1=O`, the T/C is 111 % of control (dose: 30.0 mg/kg/injection, schedule: Q01DX005 (ip), vehicle: saline with Tween-80); 100 % of control and 93 % of control under setting [13].

As to `Nc1ccc(C(O)(C(F)(F)F)C(F)(F)F)c(C(=O)O)c1`, the T/C was 104 % of control (dose: 100.0 mg/kg/injection, schedule: Q04DX003 (ip), vehicle: other); 100 % of control (dose: 200.0 mg/kg/injection, schedule: Q04DX003 (ip), vehicle: other); 109 % of control (dose: 400.0 mg/kg/injection, schedule: Q04DX003 (ip), vehicle: other).

On to `CC1(C)CC(NC2CCCCC2)=CC(=NC2CCCCC2)N1`, for which the T/C is 100 % of control under setting [14]; 105 % of control under setting [15]; 99 % of control and 101 % of control under setting [16]; 100 % of control under setting [11].

With `O=C1/C(=C/c2cccc(F)c2)SC(=S)N1C1CC1`, the T/C reads like this: under setting [14], 96 % of control; under setting [15], 96 % of control; under setting [16], 99 % of control; under setting [11], 94 % of control; under setting [3], 92 % of control; under setting [12], 87 % of control.
